Data as given in US20260062443A1 (ALEXION PHARMACEUTICALS, INC., priority 2022, published 2026).

What follows are compounds tested against T1, Human complement C1s enzyme (Homo sapiens, UniProt P09871) (assay: Human C1s enzyme assay). Details: human complement C1s enzyme 1.16 nM, substrate Z-L-Lys-SBzl 100 μM, 5 min preincubation; read-out: IC50 (Stars), C1s Inhibiting Activity.
T1 sequence (P09871 438-688 limits assumed): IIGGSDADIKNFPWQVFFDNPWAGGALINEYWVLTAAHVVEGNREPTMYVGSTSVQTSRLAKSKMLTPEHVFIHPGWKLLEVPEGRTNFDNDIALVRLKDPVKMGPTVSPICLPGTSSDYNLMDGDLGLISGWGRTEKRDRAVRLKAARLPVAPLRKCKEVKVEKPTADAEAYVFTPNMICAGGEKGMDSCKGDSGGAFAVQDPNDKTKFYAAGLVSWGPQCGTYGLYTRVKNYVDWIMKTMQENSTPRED
T1 sequence (P09871 16-437 partner limits assumed): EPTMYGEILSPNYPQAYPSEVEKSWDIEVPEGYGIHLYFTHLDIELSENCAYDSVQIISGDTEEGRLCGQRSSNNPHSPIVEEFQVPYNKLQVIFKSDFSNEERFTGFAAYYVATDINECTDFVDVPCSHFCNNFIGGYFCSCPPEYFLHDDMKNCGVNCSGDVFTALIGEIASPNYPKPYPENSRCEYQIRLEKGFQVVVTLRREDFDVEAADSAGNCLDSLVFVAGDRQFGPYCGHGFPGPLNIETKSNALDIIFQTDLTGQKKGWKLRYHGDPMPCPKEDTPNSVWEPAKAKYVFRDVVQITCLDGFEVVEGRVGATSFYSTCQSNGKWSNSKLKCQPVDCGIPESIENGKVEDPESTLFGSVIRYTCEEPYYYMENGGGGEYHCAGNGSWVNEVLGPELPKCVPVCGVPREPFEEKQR
Format: biochemical
Protocol: Other standard complement assays are also available.
Human complement C1s enzyme (purified from human serum, Complement Technology, Inc.) at 1.16 nM final concentration was incubated with test compound at various concentrations for 5 min at room temperature in 50 mM Tris, 1 M NaCl, pH 7.5. A synthetic substrate Z-L-Lys-SBzl and DTNB (Ellman's reagent) were added to final concentrations of 100 μM each. Absorbance at 405 nm (A405) was recorded at 30 second intervals for 30 min using a microplate spectrophotometer. IC50 values were calculated by nonlinear regression of complement C1 s reaction rates as a function of test compound concentration.
ND indicates a compound for which the IC50 value is not determined.

Row | SMILES | IC50
1 | COC[C@@]1(F)C[C@@H](C(=O)N[C@H](C)c2cc3cnccc3[nH]2)N(C(=O)CNC(=O)c2ccc3c(c2)Oc2ccccc2S3)C1 [Compound 173, (2S,4R)-N-((R)-1-(1H-pyrrolo[3,2-c]pyridin-2-yl)ethyl)-4-fluoro-4-(methoxymethyl)-1-((phenoxathiine-3-carbonyl)glycyl)pyrrolidine-2-carboxamide] | < 100 nM
2 | O=C(NCC(=O)N1C[C@H](OC(F)F)C[C@H]1C(=O)NCc1cc2cnccc2[nH]1)c1ccc2oc3cccc(F)c3c2c1 [Compound 369, (2S,4R)-N-((1H-pyrrolo[3,2-c]pyridin-2-yl)methyl)-4-(difluoromethoxy)-1-((9-fluorodibenzo[b,d]furan-2-carbonyl)glycyl)pyrrolidine-2-carboxamide] | < 100 nM
3 | C[C@H](NC(=O)[C@@H]1C[C@@H](OC(F)F)CN1C(=O)CNC(=O)c1ccc(Oc2ccccc2)cc1)c1cc2cnccc2[nH]1 [Compound 22, (2S,4R)-N-((S)-1-(1H-pyrrolo[3,2-c]pyridin-2-yl)ethyl)-4-(difluoromethoxy)-1-((4-phenoxybenzoyl)glycyl) pyrrolidine-2-carboxamide] | 100 to 1000 nM
4 | O=C(NCC(=O)N1C[C@H](OC(F)F)C[C@H]1C(=O)NCc1cc2cnccc2s1)c1cccc(Oc2ccc(F)cc2)c1 [Compound 254, (2S,4R)-4-(difluoromethoxy)-1-((3-(4-fluorophenoxy)benzoyl)glycyl)-N-(thieno[3,2-c]pyridin-2-ylmethyl)pyrrolidine-2-carboxamide] | < 100 nM
5 | C[C@@]12C[C@@H]1N(C(=O)CNC(=O)c1ccc(Oc3ccc(C(F)(F)F)cc3)cc1)[C@H](C(=O)NCc1cc3cnccc3[nH]1)C2 [Compound 139, (1S,3S,5S)-N-((1H-pyrrolo[3,2-c]pyridin-2-yl)methyl)-5-methyl-2-((4-(4-(trifluoromethyl)phenoxy)benzoyl)glycyl)-2-azabicyclo[3.1.0]hexane-3-carboxamide] | 100 to 1000 nM
6 | C[C@@H](NC(=O)[C@@H]1C[C@]2(CO)C[C@@H]2N1C(=O)CNC(=O)c1ccc2c(c1)Oc1ccccc1S2)c1cc2cnccc2[nH]1 [Compound 161, (1S,3S,5R)-N-((R)-1-(1H-pyrrolo[3,2-c]pyridin-2-yl)ethyl)-5-(hydroxymethyl)-2-((phenoxathiine-3-carbonyl)glycyl)-2-azabicyclo[3.1.0]hexane-3-carboxamide] | < 100 nM
7 | C[C@@]12C[C@@H]1N(C(=O)CNC(=O)CCCOc1ccccc1)[C@H](C(=O)OCc1cc3c(cn1)CNC3)C2 [Compound 66, (2,3-dihydro-1H-pyrrolo[3,4-c]pyridin-6-yl)methyl (1S,3S,5S)-5-methyl-2-((4-phenoxybutanoyl)glycyl)-2-azabicyclo[3.1.0]hexane-3-carboxylate] | > 1000 nM
8 | C[C@@]12C[C@@H]1N(C(=O)CNC(=O)c1ccc3c(c1)Oc1ccccc1S3)[C@H](C(=O)NCc1cc3c(s1)CCNC3)C2 [Compound 170, (1S,3S,5S)-5-methyl-2-((phenoxathiine-3-carbonyl)glycyl)-N-((4,5,6,7-tetrahydrothieno[3,2-c]pyridin-2-yl)methyl)-2-azabicyclo[3.1.0]hexane-3-carboxamide] | < 100 nM
9 | C[C@@H](NC(=O)[C@@H]1C[C@@H](OC(F)F)CN1C(=O)CN1Cc2cc(-c3ccc(F)cc3)ccc2C1=O)c1cc2cnccc2[nH]1 [Compound 101, (2S,4R)-N-((R)-1-(1H-pyrrolo[3,2-c]pyridin-2-yl)ethyl)-4-(difluoromethoxy)-1-(2-(5-(4-fluorophenyl)-1-oxoisoindolin-2-yl)acetyl)pyrrolidine-2-carboxamide] | < 100 nM
10 | COC[C@@H]1C[C@@H](C(=O)NCc2cc3cnccc3[nH]2)N(C(=O)CNC(=O)c2cccc(Oc3ccc(C)cc3F)c2)C1 (relative stereo) [Compound 318, (2S,4R*)-N-((1H-pyrrolo[3,2-c]pyridin-2-yl)methyl)-1-((3-(2-fluoro-4-methylphenoxy)benzoyl)glycyl)-4-(methoxymethyl)pyrrolidine-2-carboxamide] | < 100 nM
11 | O=C(NCC(=O)N1CC2(C[C@H]1C(=O)NCc1ccn[nH]1)OCCO2)c1ccc(Oc2ccccc2)cc1 [Compound 12, (S)-N-((1H-pyrazol-5-yl)methyl)-7-((4-phenoxybenzoyl)glycyl)-1,4-dioxa-7-azaspiro[4.4]nonane-8-carboxamide] | > 1000 nM

The next lines start with the values.

Row | IC50 | SMILES
12 | < 100 nM | O=C(NCC(=O)N1CC2(C[C@H]1C(=O)NCc1cc3cnccc3[nH]1)OCCO2)c1ccc(Oc2ccc(Cl)c(Cl)c2)o1 [Compound 287, (S)-N-((1H-pyrrolo[3,2-c]pyridin-2-yl)methyl)-7-((5-(3,4-dichlorophenoxy)furan-2-carbonyl)glycyl)-1,4-dioxa-7-azaspiro[4.4]nonane-8-carboxamide]
13 | < 100 nM | Cc1ccc(Oc2cccc(C(=O)NCC(=O)N3C[C@@](F)(CF)C[C@H]3C(=O)NCc3cc4cnccc4[nH]3)c2)c(F)c1 [Compound 319, (2S,4R)-N-((1H-pyrrolo[3,2-c]pyridin-2-yl)methyl)-4-fluoro-1-((3-(2-fluoro-4-methylphenoxy)benzoyl)glycyl)-4-(fluoromethyl) pyrrolidine-2-carboxamide]
14 | < 100 nM | COC[C@@]1(F)C[C@@H](C(=O)NCc2cc3cnccc3[nH]2)N(C(=O)CNC(=O)c2ccc3oc4ccccc4c3c2)C1 [Compound 201, (2S,4R)-N-((1H-pyrrolo[3,2-c]pyridin-2-yl)methyl)-1-((dibenzo[b,d]furan-2-carbonyl)glycyl)-4-fluoro-4-(methoxymethyl)pyrrolidine-2-carboxamide]
15 | > 1000 nM | COC[C@@]1(F)C[C@@H](C(=O)N[C@H](CO)c2cc3cnccc3[nH]2)N(C(=O)CNC(=O)c2ccc(Oc3ccc(F)cc3)cc2)C1 [Compound 97, (2S,4R)-4-fluoro-1-((4-(4-fluorophenoxy)benzoyl)glycyl)-N-((S)-2-hydroxy-1-(1H-pyrrolo[3,2-c]pyridin-2-yl)ethyl)-4-(methoxymethyl) pyrrolidine-2-carboxamide]
16 | < 100 nM | C[C@@H](NC(=O)[C@@H]1CC2(CN1C(=O)CNC(=O)c1ccc3oc4ccccc4c3c1)OCCO2)c1cc2cnccc2[nH]1 [Compound 300, (S)-N-((R)-1-(1H-pyrrolo[3,2-c]pyridin-2-yl)ethyl)-7-((dibenzo[b,d]furan-2-carbonyl)glycyl)-1,4-dioxa-7-azaspiro[4.4]nonane-8-carboxamide]
17 | < 100 nM | CS(=O)(=O)[C@@H]1C[C@@H](C(=O)N[C@H](CO)c2cc3cnccc3[nH]2)N(C(=O)CNC(=O)c2ccc3c(c2)Oc2ccccc2S3)C1 [Compound 99, (2S,4R)-N-((S)-2-hydroxy-1-(1H-pyrrolo[3,2-c]pyridin-2-yl)ethyl)-4-(methylsulfonyl)-1-((phenoxathiine-3-carbonyl)glycyl) pyrrolidine-2-carboxamide]
18 | < 100 nM | O=C(NCC(=O)N1C[C@H](OC(F)F)C[C@H]1C(=O)NCc1cc2cnccc2[nH]1)c1ccc(F)c(Oc2ccccc2)c1 [Compound 304, (2S,4R)-N-((1H-pyrrolo[3,2-c]pyridin-2-yl)methyl)-4-(difluoromethoxy)-1-((4-fluoro-3-phenoxybenzoyl)glycyl)pyrrolidine-2-carboxamide]
19 | < 100 nM | Cc1ccc(Oc2cccc(C(=O)NCC(=O)N3C[C@H](OC(F)F)C[C@H]3C(=O)N[C@H](C)c3cc4cnccc4[nH]3)c2)c(F)c1 [Compound 312, (2S,4R)-N-((R)-1-(1H-pyrrolo[3,2-c]pyridin-2-yl)ethyl)-4-(difluoromethoxy)-1-((3-(2-fluoro-4-methylphenoxy)benzoyl)glycyl) pyrrolidine-2-carboxamide]
20 | 100 to 1000 nM | C[C@@]12C[C@@H]1N(C(=O)CNC(=O)c1ccc(Oc3ccccc3)cn1)[C@H](C(=O)NCc1cc3cnccc3[nH]1)C2 [Compound 136, (1S,3S,5S)-N-((1H-pyrrolo[3,2-c]pyridin-2-yl)methyl)-5-methyl-2-((5-phenoxypicolinoyl)glycyl)-2-azabicyclo[3.1.0]hexane-3-carboxamide]
21 | > 1000 nM | Cc1ccc(Oc2cccc(C(=O)NCC(=O)N3C[C@H](OC(F)F)C[C@H]3C(=O)Nc3cc4cnccc4s3)c2F)cc1 [Compound 376, (2S,4R)-4-(difluoromethoxy)-1-((2-fluoro-3-(p-tolyloxy)benzoyl)glycyl)-N-(thieno[3,2-c]pyridin-2-yl)pyrrolidine-2-carboxamide]
22 | > 1000 nM | C[C@@]12C[C@@H]1N(C(=O)CNC(=O)CCCOc1ccccc1)[C@H](C(=O)NC1(c3ccc4c(c3)CNCC4)CC1)C2 [Compound 62, (1S,3S,5S)-5-methyl-2-((4-phenoxybutanoyl)glycyl)-N-(1-(1,2,3,4-tetrahydroisoquinolin-7-yl)cyclopropyl)-2-azabicyclo[3.1.0]hexane-3-carboxamide]
